Some test systems named below: ACHN renal; DU-145 prostate; HCC-2998 colon; HOP-62 NSCLC; HS 578T breast; M14 melanoma; MDA-MB-231 breast; MDA-MB-435; SF-295 CNS; SK-OV-3 ovarian.
Assay in all cases: NCI-60 cell line screen, 48 h

Molecules are shown by their SMILES. Where “and” joins values, the source holds several entries; their conditions need not be identical. Equal values may be shown once.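 Protocol summary: plate cells (96-well), add compound at 5 concentrations, incubate 48 h, interpolate endpoints linearly. Abbreviation: GI50, concentration required for 50% inhibition of growth. The concentration for full growth arrest is given as TGI.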

On to `CCCCCCCCCCCCOC1C(C(CC(=O)N2CCN(Cc3ccc4c(c3)OCO4)CC2)NS(=O)(=O)c2cc(Cl)cc(Cl)c2)OC2OC(C)(C)OC21` (stereo unspecified), for which the GI50 is 33.8 µM in the test on ACHN renal; 25.5 µM in the test on DU-145 prostate; 5.54 µM with HCC-2998 colon; 86.5 µM in the test on HOP-62 NSCLC; 9.17 µM in the test with HS 578T breast; 61.1 µM with M14 melanoma. In addition, the GI50 is 18.1 µM in the test with MDA-MB-231 breast, 48 µM in the test on MDA-MB-435, 26.3 µM in the test with SF-295 CNS and above 100 µM in the test on SK-OV-3 ovarian. The TGI was above 100 µM in the test on ACHN renal; above 100 µM with DU-145 prostate; above 51.4 µM with HCC-2998 colon; above 100 µM with HOP-62 NSCLC; above 68.9 µM in the test on HS 578T breast; above 100 µM in the test on M14 melanoma. For the same compound, the TGI in the test with MDA-MB-231 breast is above 89.8 µM; with MDA-MB-435, above 100 µM; in the test on SF-295 CNS, above 100 µM; with SK-OV-3 ovarian, above 100 µM.
`Nc1nc(=S)c2[nH]cnc2[nH]1`: the GI50 in the test on ACHN renal was 0.89 µM and 4.03 µM; in the test on DU-145 prostate, 0.477 µM and 0.538 µM; with HCC-2998 colon it was 0.382 µM and 1.19 µM; with HOP-62 NSCLC, 0.472 µM; with HS 578T breast, 4.13 µM; in the test on M14 melanoma it was 0.413 µM and 0.677 µM. In addition, the GI50 was 0.323 µM and 1.36 µM in the test with MDA-MB-231 breast; 0.349 µM and 0.552 µM in the test with MDA-MB-435; 0.209 µM and 1.24 µM in the test on SF-295 CNS; 0.293 µM and 0.784 µM in the test on SK-OV-3 ovarian. Further, the TGI in the test with ACHN renal is 41.8 µM and 104 µM; in the test on DU-145 prostate it was > 32.1 µM and 144 µM and 28.7 µM; in the test on HCC-2998 colon it was 6.93 µM and 16.7 µM and 4.98 µM; with HOP-62 NSCLC, > 31.8 µM and 29.6 µM and 94.9 µM; in the test with MDA-MB-231 breast, > 100 µM and 150 µM and > 250 µM; in the test on SK-OV-3 ovarian it was 8.82 µM and 17.5 µM and > 86 µM.
Consider `NC(N)=N/N=C/c1c(-c2ccncc2)nc2sc(Cl)cn12`, for which the GI50 with ACHN renal is 9.28 µM; in the test with DU-145 prostate, 17.5 µM; in the test with HCC-2998 colon, 3.29 µM; with HOP-62 NSCLC it was 15.2 µM; in the test with HS 578T breast it was 18.8 µM; in the test with M14 melanoma, 6.54 µM. Moreover, the GI50 in the test with MDA-MB-231 breast was 1.58 µM; with MDA-MB-435, 6.63 µM; in the test on SF-295 CNS it was 13.5 µM; in the test with SK-OV-3 ovarian, 22.4 µM. Also, the TGI in the test on ACHN renal was determined as 24.5 µM; with DU-145 prostate it was 33.3 µM; in the test on HCC-2998 colon, 9.36 µM; in the test with HOP-62 NSCLC, 37.2 µM; with HS 578T breast it was 41.7 µM; with M14 melanoma, 14.7 µM. For the same compound, the TGI in the test on MDA-MB-231 breast was 3.6 µM; in the test with MDA-MB-435, 13.6 µM; in the test with SF-295 CNS, 33.7 µM; with SK-OV-3 ovarian, 48.1 µM.
On to `N#CCC1(n2cc(-c3ncnc4[nH]ccc34)cn2)CN(C2CCN(C(=O)c3ccnc(C(F)(F)F)c3F)CC2)C1`, for which the GI50 was above 100 µM in the test on ACHN renal; above 100 µM with DU-145 prostate; above 100 µM in the test on HCC-2998 colon; above 100 µM in the test on HOP-62 NSCLC; 28.1 µM in the test on HS 578T breast; above 100 µM in the test on M14 melanoma. In addition, the GI50 in the test on MDA-MB-231 breast is 46.6 µM; with MDA-MB-435, 92.1 µM; in the test on SF-295 CNS, 53.9 µM; with SK-OV-3 ovarian, above 100 µM. The TGI with ACHN renal, with DU-145 prostate, in the test with HCC-2998 colon, in the test on HOP-62 NSCLC, in the test on HS 578T breast and in the test with M14 melanoma was above 100 µM throughout. For the same compound, the TGI in the test on MDA-MB-231 breast, in the test on MDA-MB-435, in the test with SF-295 CNS and in the test on SK-OV-3 ovarian was above 100 µM each time.
For the compound `O=c1nc2[nH]c3c(-c4n[nH]c(=O)[nH]c4=O)cccc3c2n[nH]1`, the GI50 in the test with ACHN renal, in the test on DU-145 prostate, with HCC-2998 colon, in the test on HOP-62 NSCLC, with HS 578T breast and in the test with M14 melanoma was above 100 µM throughout. For the same compound, the GI50 with MDA-MB-231 breast, in the test with MDA-MB-435, in the test on SF-295 CNS and in the test with SK-OV-3 ovarian was above 100 µM each time. Moreover, the TGI in the test on ACHN renal, with DU-145 prostate, in the test on HCC-2998 colon, with HOP-62 NSCLC, with HS 578T breast and in the test on M14 melanoma was above 100 µM in each case. In addition, the TGI in the test on MDA-MB-231 breast, with MDA-MB-435, with SF-295 CNS and with SK-OV-3 ovarian was above 100 µM in each case.
As to `COc1cccc(C2C(C#N)=C(N)Oc3cc4c(cc32)OCO4)c1` (stereo unspecified), the GI50 is 2.26 µM with ACHN renal; 0.0845 µM in the test with DU-145 prostate; 0.0813 µM in the test with HCC-2998 colon; 0.0501 µM with HOP-62 NSCLC; 0.0316 µM in the test with HS 578T breast; 0.059 µM in the test with M14 melanoma. Moreover, the GI50 is 0.695 µM with MDA-MB-231 breast, 0.0162 µM in the test on MDA-MB-435, 0.035 µM in the test on SF-295 CNS and 0.0508 µM in the test on SK-OV-3 ovarian. The TGI in the test with ACHN renal is above 100 µM; with DU-145 prostate, 2.78 µM; in the test on HCC-2998 colon, 2.52 µM; with HOP-62 NSCLC it was 27.2 µM; in the test on HS 578T breast it was 25.5 µM; in the test with M14 melanoma, 16.3 µM. The TGI in the test with MDA-MB-231 breast is above 52.1 µM; in the test on MDA-MB-435, 0.0829 µM; in the test with SF-295 CNS, 22 µM; in the test with SK-OV-3 ovarian, 4.71 µM.
Regarding `O=C(O)Cn1ccc(=O)c2cc([N+](=O)[O-])ccc21`, the TGI with ACHN renal, in the test on DU-145 prostate, in the test with HCC-2998 colon, with HOP-62 NSCLC, with HS 578T breast and with M14 melanoma was above 100 µM each time. Besides, the TGI is 33.5 µM in the test on MDA-MB-231 breast, above 100 µM in the test on MDA-MB-435, above 100 µM with SF-295 CNS and above 100 µM with SK-OV-3 ovarian.

Values taken from PubChem BioAssay (NCI).
